Experimental data published in ChEMBL document CHEMBL4138160, “Biphenylthiazole antibiotics with an oxadiazole linker: An approach to improve physicochemical properties and oral bioavailability” (Eur J Med Chem, 2018).
In brackets after ≈: the same amount, converted by molar mass.

How the values were obtained:
[1] = test system: Staphylococcus aureus; experiment: Antibacterial activity against methicillin-resistant Staphylococcus aureus 2658 RCMB after 20 hrs by broth microdilution method; assay type: functional
[2] = test system: Staphylococcus aureus; experiment: Antibacterial activity against Staphylococcus aureus NRS119 clinical isolate after 20 hrs by broth microdilution method; assay type: functional; settings: NRS119, 20 h
[3] = test system: Staphylococcus aureus; experiment: Antibacterial activity against Staphylococcus aureus NRS119 clinical isolate after 18 to 20 hrs by broth microdilution method; assay type: functional
[4] = test system: Klebsiella pneumoniae; experiment: Antibacterial activity against Klebsiella pneumoniae BAA-1706 after 20 hrs by broth microdilution method; assay type: functional; settings: BAA-1706, 20 h
[5] = test system: Pseudomonas aeruginosa; experiment: Antibacterial activity against Pseudomonas aeruginosa ATCC 15442 after 20 hrs by broth microdilution method; assay type: functional; settings: ATCC 15442, 20 h
[6] = test system: Acinetobacter baumannii; experiment: Antibacterial activity against Acinetobacter baumannii ATCC 19606 after 20 hrs by broth microdilution method; assay type: functional; settings: ATCC 19606 = CIP 70.34 = JCM 6841, 20 h
[7] = test system: Enterobacter cloacae; experiment: Antibacterial activity against Enterobacter cloacae BAA-1154 after 20 hrs by broth microdilution method; assay type: functional; settings: BAA-1154, 20 h
[8] = test system: Enterococcus faecium; experiment: Antibacterial activity against vancomycin-resistant Enterococcus faecium ATCC 700221 after 20 hrs by broth microdilution method; assay type: functional; settings: ATCC 700221, 20 h
[9] = test system: Staphylococcus aureus; experiment: Antibacterial activity against Staphylococcus aureus RN4220 NRS107 clinical isolate after 18 to 20 hrs by broth microdilution method; assay type: functional
[10] = test system: Rattus norvegicus; experiment: Oral bioavailability in Sprague-Dawley rat at 25 mg/kg administered via gavage measured over 24 hrs by LC-MS/MS analysis; assay type: ADME, organism-based; settings: in vivo
[11] = test system: Staphylococcus aureus; experiment: Antibacterial activity against methicillin-resistant Staphylococcus aureus USA300 NRS384 at sub MIC after 4 passages by broth microdilution method
[12] = test system: Staphylococcus aureus; experiment: Antibacterial activity against methicillin-resistant Staphylococcus aureus USA300 NRS384 by broth microdilution method
[13] = Aqueous solubility in PBS after 2 hrs; assay type: physicochemical; settings: buffer

Compound: Cc1nc(-c2ccc(-c3ccccc3)cc2)sc1-c1nnc(NC(=N)N2CCCCC2)o1
- MIC [1]: > 25 µg/mL

Compound: CCCNc1nnc(-c2sc(-c3ccc(-c4ccccc4)cc3)nc2C)o1
- MIC [1]: > 25 µg/mL

Compound: Cc1nc(-c2ccc(-c3ccccc3)cc2)sc1-c1nnc(NC(=N)c2ccncc2)o1
- MIC [1]: > 25 µg/mL

Compound: CCCCNc1nnc(-c2sc(-c3ccc(-c4ccccc4)cc3)nc2C)o1
- MIC [1]: > 25 µg/mL

Compound: Cc1nc(-c2ccc(-c3ccccc3)cc2)sc1-c1nnc(N2CCC2)o1
- MIC [1]: > 25 µg/mL

Compound: CC(=O)NC[C@H]1CN(c2ccc(N3CCOCC3)c(F)c2)C(=O)O1 [LINEZOLID]
- MIC [2]: > 128 µg/mL
- MIC [3]: > 128 µg/mL
- MIC [4]: > 64 µg/mL
- MIC [5]: > 64 µg/mL
- MIC [6]: > 64 µg/mL
- MIC [7]: > 64 µg/mL
- MIC [8]: 1 µg/mL (≈ 2.96 µM)

Compound: CCNc1nnc(-c2sc(-c3ccc(-c4ccccc4)cc3)nc2C)o1
- MIC [1]: > 25 µg/mL

Compound: C/C(=C\C(=O)OCCCCCCCCC(=O)O)C[C@@H]1OC[C@H](C[C@@H]2O[C@H]2[C@@H](C)[C@H](C)O)[C@@H](O)[C@H]1O [MUPIROCIN]
- MIC [9]: 1020 µg/mL (≈ 2050 µM)

Compound: Cc1nc(-c2ccc(-c3ccccc3)cc2)sc1-c1nnc(NC(=N)c2ccccn2)o1
- MIC [1]: > 25 µg/mL

Compound: CCCCc1ccc(-c2nc(C)c(/C(C)=N/NC(=N)N)s2)cc1
- F [10]: 0%

Compound: Cc1nc(-c2ccc(-c3ccccc3)cc2)sc1-c1nnc(NC2CCCC2)o1
- MIC [1]: > 25 µg/mL

Compound: CO[C@H]1/C=C/O[C@@]2(C)Oc3c(C)c(O)c4c(O)c(c(/C=N/N5CCN(C)CC5)c(O)c4c3C2=O)NC(=O)/C(C)=C\C=C\[C@H](C)[C@H](O)[C@@H](C)[C@@H](O)[C@@H](C)[C@H](OC(C)=O)[C@@H]1C [RIFAMPIN]
- MIC [11]: 1.6 µg/mL (≈ 1.94 µM)
- MIC [12]: 0.006 µg/mL (≈ 0.00729 µM)

Compound: Cc1nc(-c2ccc(-c3ccccc3)cc2)sc1-c1ccnc(NC(=N)N)n1
- solubility [13]: 2.2 µM (≈ 0.85 µg/mL)

Compound: CCN(CC)c1nnc(-c2sc(-c3ccc(-c4ccccc4)cc3)nc2C)o1
- MIC [1]: > 25 µg/mL

Compound: Cc1nc(-c2ccc(-c3ccccc3)cc2)sc1-c1nnc(N2CCN(C)CC2)o1
- solubility [13]: 45 µM (≈ 18.8 µg/mL)
- MIC [1]: 1.56 µg/mL (≈ 3.74 µM)

Compound: Cc1nc(-c2ccc(-c3ccccc3)cc2)sc1-c1nnc(NC2CCCCC2)o1
- MIC [1]: > 25 µg/mL
